Results: a melting point compilation (Tetko et al.; mined from patent text by program, amines drawn as free bases though some values may be those of a salt)

| melting point [°C] | Compound |
| --- | --- |
| 127 to 130 | CCOC(=O)CN(CC1Nc2cc(Cl)c(S(N)(=O)=O)cc2S(=O)(=O)N1)C(=O)C(C)CSC(C)=O (stereo not given) |
| 205 to 208 | CCOC(=O)c1ccc(OCc2csc3nc(C(=O)OCC)[nH]c(=O)c23)cc1 |
| 147 to 149 | CCC(Oc1cccc(C)c1)C(=O)OC1CC(O)C=C2C=CC(C)C(CCC3CC(O)CC(=O)O3)C21 (mixture of isomers) |
| 132 to 133 | Cc1oc(-c2ccc3ccccc3c2)nc1COc1ccc(CCCCCOS(C)(=O)=O)cc1 |
| 125 to 127 | CCCCc1nn(-c2ccccc2C(F)(F)F)c(=O)n1Cc1ccc(-c2ccccc2S(=O)(=O)NC(=O)C(F)(F)F)cc1 |
| 288 to 292 | CCCN1NCc2c(C3C(=O)Nc4ccc(F)cc43)ncnc21 (stereo not given) |
| 92 to 94 | COc1ccc(Cn2cnc(C(=N)C#N)c2N)cc1 |
| 131 to 133 | CCCCCCCOc1ccc(C(=O)Nc2ccccc2O)cc1 |
| 112 to 113 | COc1ccc(C2CCN(C(=O)C(=O)O)CC2)cc1OC1CCCC1 |
| 88 to 90 | CCCc1nc2ccc(OC(F)(F)F)cc2[nH]1 |
| 106 to 109 | O=C(CC(Cc1cccc2ccccc12)C(=O)N[C@@H](Cc1c[nH]cn1)C(=O)N[C@H](CO)Cc1ccccc1)NCCc1ccccc1 (stereo not given in full) |
| 210 to 212 | CC(C)Oc1ccc2nc(COc3ccc(CC4SC(=O)NC4=O)cc3)n(C)c2n1 (stereo not given) |
| 145 to 147 | CCOc1ccc(C(=O)NCc2ccc3c(c2)C(=O)N(C2(C)CCC(=O)NC2=O)C3=O)nc1 (stereo not given) |
| 155 to 157 | CCOC(=O)C(=O)c1csc(NC(=S)NC(=O)c2ccccc2)n1 |
| 154 to 155 | CCCCCCNC(=O)Nc1cccc2c1C1(COc3cc4c(cc31)OCCO4)C(=O)N2C (stereo not given) |
| 153 to 156 | COc1c(N2CCNC(CF)C2)c(F)cc2c(=O)c(C(=O)O)cn([C@@H]3C[C@@H]3F)c12 (stereo not given in full) |
| 150 | Cn1nc(C(C)(C)C)cc1O |
| 136 to 137 | CC(C)(C)c1cc2c(c(C(C)(C)C)c1)OC(=O)C2c1ccc(C#N)cc1 (stereo not given) |
| 193 to 200 | CN1CCC(C2(O)c3ccccc3Oc3ccc(F)cc32)CC1 (stereo not given) |
| 56 to 58 | CC(=O)CCc1ccc2ccccc2c1 |
| 114 to 115 | CCOC(=S)c1cccc2nnsc12 |
| 88 to 89 | CC#CCOc1ccc(S(=O)(=O)N(C)C(CCCSc2ccc(Cl)cc2)C(=O)OC)cc1 (stereo not given) |
| > 300 | O=C(O)c1cn(C2CC2)c2nc(N3Cc4ccccc4C3)c(F)cc2c1=O |
| 124 to 125 | CC(Cl)(Cl)C(NC(=O)c1cccc(Cl)c1)NC(=NC#N)Nc1ccc(F)nc1 (stereo not given) |

| melting point [°C] | Compound |
| --- | --- |
| 268 to 270 | O=C1Cc2cc(C(=O)N3CCN(C(=O)c4ccccc4)CC3)ccc2N1 |
| 65 to 69 | CN(C)C1(C(N)=O)CCCCC1 |
| 118 to 126 | Cc1cc(F)ccc1-c1ccc(S(=O)(=O)N2c3ccccc3CC2C(=O)NCc2ccccc2NCCC(=O)O)cc1 (stereo not given) |
| 204 | NC(N)=Nc1nc(-c2csc(CNC(=O)CSCc3ccco3)n2)cs1 |
| 198 | CN(C(=S)N[C@@H](Cc1ccc(NC(=O)c2c(Cl)cncc2Cl)cc1)C(=O)O)c1ccccc1Cc1ccccc1 |
| 97 to 100 | COC(=S)C(C)Cc1ccc(OCc2nc3ccc(SC)cc3n2C)cc1 (stereo not given) |
| 210 | O=C1Nc2ccccc2N2C1CCC2c1cccc(Cl)c1 (stereo not given) |
| 55 to 57 | CCOC(=O)c1c(C)nc(NCCCN(C)C)c2nccnc12 |
| 175 to 176 | Cc1cc(Br)cnc1CCCCNC1=NS(=O)N=C1NCc1ccccc1 (stereo not given) |
| 158 to 167 | CC(=O)Oc1cc2ccc(S(=O)(=O)Cl)cc2cc1OC(C)=O |
| 87.5 to 88.5 | CCOC(=O)C(SC)c1ccccc1NC (stereo not given) |
| 121 to 123 | CC(C)=NNc1ccc(OCC(C)NCC(O)COc2ccccc2C#N)nn1 (stereo not given) |
| 80 to 86 | Cc1occ2c1-c1ccccc1C(=C1CCN(C)CC1)c1ccccc1-2 |
| 158 to 160 | CC(C)(CO)Oc1ccc(-c2ccc(N3CCCCC3)cc2)cc1 |
| 123 to 125 | Cc1ccc(S(=O)(=O)Nc2nc(-c3cc(F)cc(C(F)(F)F)c3)cs2)cc1 |
| 122 to 123 | O=C1N(Cc2ccccn2)c2ccccc2C12COc1cc3c(cc12)OCCCO3 (stereo not given) |
| 154 to 156 | COC(=O)c1c(N)ncn1-c1c(C)cccc1C |
| 125 to 126 | CCOC(=O)c1cnn(-c2ccc(OCCC(C)C)c(C#N)c2)c1 |
| 152 to 153 | O=C1CSCC(C(=O)O)N1 (stereo not given) |
| 165 to 166 | O=C(c1cccs1)c1cccn1N1C(=O)c2ccccc2C1=O |
| 199 to 201 | CC1(N2C(=O)c3cccc(NCc4cccc(Cl)c4)c3C2=O)CCC(=O)NC1=O (stereo not given) |
| 83 | COC(=O)c1c(F)cc(OCCNC(=O)C2Cc3ccccc3N2S(=O)(=O)c2ccc(-c3ccc(F)cc3)cc2)cc1F (stereo not given) |
| 149 | CCOC(=O)c1cccc2c1c1c(C)ccc(C)c1n2S(=O)(=O)c1ccc(C)cc1 |
| 118 to 119 | O=C1/C(=C/c2ccccc2)C(Br)c2ccccc21 (stereo not given) |

| melting point [°C] | Compound |
| --- | --- |
| 73 to 74 | COc1ccc(Br)c(C=O)c1 |
| 198 | [N-]=[N+]=Nc1nc(NC(=O)c2ccccc2)nc2c1ncn2CC(O)CF (racemic) |
| 132 to 134 | CCOC(=O)CC12C(OS(=O)(=O)C(F)(F)F)=CC(C(C)CCCC(C)C)C1(C)CCC1=C2CCC2CC(OC(=O)c3ccccc3)CCC12C (stereo not given) |
| 44 to 45 | CCOC(=O)Cc1nc2cc(Cl)ccc2n1CC |
| 170 to 171 | CC(C)(C)OC(=O)NCCNC(=O)c1nocc1-c1ccccc1 |
| 116 to 117 | CS(=O)(=O)c1ccc(Oc2cc(OC3CCOCC3)c3[nH]c(C4=NCC(CCO)S4)cc3c2)cc1 (stereo not given) |
| 135 to 137 | COC(=O)Nc1ccccc1C=Cc1ccccc1Cl |
| 172 to 174 | COc1cccc(NC(=O)C23CC4CC(CC(C4)C2)C3)c1 |
| 94.5 to 101 | O=C(O)CCCNC(=O)C(CS)Cc1ccccc1 (stereo not given) |
| 153 to 154 | NCCCCCCc1ccc(C2=NNC(=O)CC2)cc1 |
| 127 to 129 | CC(C)C(=O)N(C(=O)N(C)C)c1snc(C(C)C)c1C#N |
| 214 | CN1C(=O)C(C2=COc3ccccc3O2)=C(c2c[nH]c3cc(F)ccc23)C1=O |
| 138 to 139 | O=C1COCCN1c1ccc(NC[C@H](O)CCl)cc1 |
| 181 to 183 | COCCC1(C(=O)N[C@@H](Cc2ccc(-c3c(C(F)(F)F)cc(C)n(C)c3=O)cc2)C(=O)O)CCCC1 |
| 76 to 77 | C=CCc1cc(-c2ccc(F)cc2)cc(C(=O)OC)c1O |
| 169 to 171 | Cc1cc(C)c(COc2cccnc2NC(=N)Nc2ccc(Cl)cc2)c(C)c1 |
| 279 to 280 | NNC(=O)c1ccc(-c2csc(N=C(N)N)n2)o1 |
| 46 to 48 | CC(C)CN1C(=O)[C@H](CCCC#N)C[C@H]1CO |
| 161 | CC(C)CCCC(C)C1CCC2C3=CC=C4CC(OC(=O)c5ccccc5)CC(OC(=O)c5ccccc5)C4(C)C3CCC21C (stereo not given) |
| 308 to 310 | Cc1cccc2[nH]c(=O)n3ccnc3c12 |
| 150 | O=C1c2ccccc2C(=O)N1CC(=O)N(Cc1ccccc1)c1ccccc1 |
| 100 to 105 | COc1cc2c(Nc3ccc4c(c3)NCC4)c(C#N)cnc2cc1OCCCc1ccncc1 |
| 88 | CCCCN(CCCC)CCCOc1ccc(S(=O)(=O)c2ccccc2C(C)C)cc1 |
| 152 to 154 | Cc1c(C)c2c(c(C)c1O)CCC(C)(CCOc1ccc(CC3SC(=O)NC3=O)cc1)O2 (stereo not given) |

| melting point [°C] | Compound |
| --- | --- |
| 202 to 203 | CCCc1nc2c(N)nc3ccccc3c2n1CCCCC(N)=O |
| 185 to 187 | COc1ccc(-c2cncn2-c2ccc(S(C)(=O)=O)cc2)cc1 |
| 93 to 94 | CCOC(=O)C(C)(C)CCS(N)(=O)=O |
| 171 | CC1=C(c2ccc(C(=O)N3Cc4ccc(C(=O)C(Cl)(Cl)Cl)n4Cc4ccccc43)cc2)CCCC1 |
| 268 to 280 | Cc1cc2c(C(=O)O)ccc(C(=O)O)c2cc1C |
| 127 to 128 | Cc1cc(O)c(S(=O)Cc2ccc(F)cc2)c(=O)o1 (stereo not given) |
| 99 to 103 | N#Cc1cnn(C2CCCCC2)c1N |
| 141 | COC(=O)CCN(CC(=O)O)CC(=O)O |
| 151 to 152 | CCOC(=O)c1cc2c3ccccc3n(Cc3ccccc3)c2nc1N1CCOCC1 |
| 215 to 217 | CC(C)c1cc(-c2ccc(F)cc2)nc(O)n1 |
| 153 to 154 | COc1ccc(Cn2nnc(-c3ccc(C(F)(F)F)cc3F)c2N)cc1 |
| 190 to 191 | CN1CCC(O)(c2ccccc2C(O)c2ccccc2)CC1 (stereo not given) |
| 118 to 120 | CC(=O)SCCC(=O)N1c2ccc(C)cc2CCC1C(=O)O (stereo not given) |
| 152 to 153 | CNc1nc(C(=O)O)ccc1C(=O)OC |
| 74 to 76 | CCOC(=O)CCCCC(=O)c1c(C)n(C(=O)OC)c(=O)n1C(=O)OC |
| 183 | O=C(O)c1ccc(C=CC(=O)N2CCc3c([nH]c4ccccc34)C2c2ccc3c(c2)CCO3)nc1 (stereo not given) |
| 179 | OC1CSC(Oc2cc(-c3ccc(F)nc3)cc(F)c2F)C(O)C1O (stereo not given) |
| 266 to 268 | COc1c(O)c(OC)c2c(=O)cc(-c3ccc(O)cc3)oc2c1OC |
| 76.5 to 78 | CCOC(=O)CCc1cc(C(=O)c2ccc(C(=O)OCC)cc2)ccc1OCCCCCBr |
| 70 to 71 | OCc1conc1-c1ccc(C(F)(F)F)cc1 |
| 203 to 204 | COC(=O)/C(=C/C=C/c1cc2cc(Cl)c(Cl)cc2[nH]1)OC |
| 169 to 171 | CON=C1CCS(=O)(=O)c2c(C)cc(C(=O)O)c(C)c21 |
| 159 to 160 | CN1OCC(=O)N(c2ccc(Oc3ccccc3)cc2)C1=S |
| 71 to 72 | CC1(C)CCC(C)(C)c2ccccc21 |

| Compound | melting point [°C] |
| --- | --- |
| CCCc1c(C(=O)CC(C)OC)c2ccc(C(N)=O)cc2n1Cc1ccccc1Cl (stereo not given) | 155 to 157 |
| Fc1ccc(Cn2c(NC3CCN(CCc4cnccn4)CC3)nc3ccccc32)cc1 | 165 |
| CCOC1CC2(C)C(CCC3C4CCC(=O)C4(C)CC(N)C32)CC1O (stereo not given) | 144 to 148 |
| COC1(C#Cc2ncn3c2CN(C)C(=O)c2c(Cl)cccc2-3)CCCC1 | 174 to 175 |
